From patent publication EP4741383A1, “COMPOUND AND USE THEREOF AS ANTI-CANCER DRUG” (Tyligand Bioscience (Shanghai) Limited, priority 2023, dated 2025)

Target: T1, CYP1A2 (Homo sapiens, UniProt P05177)
T1 construct: tissue Corning or Xenotech; host or cells: human liver microsomes
T1 sequence (P05177 1-516): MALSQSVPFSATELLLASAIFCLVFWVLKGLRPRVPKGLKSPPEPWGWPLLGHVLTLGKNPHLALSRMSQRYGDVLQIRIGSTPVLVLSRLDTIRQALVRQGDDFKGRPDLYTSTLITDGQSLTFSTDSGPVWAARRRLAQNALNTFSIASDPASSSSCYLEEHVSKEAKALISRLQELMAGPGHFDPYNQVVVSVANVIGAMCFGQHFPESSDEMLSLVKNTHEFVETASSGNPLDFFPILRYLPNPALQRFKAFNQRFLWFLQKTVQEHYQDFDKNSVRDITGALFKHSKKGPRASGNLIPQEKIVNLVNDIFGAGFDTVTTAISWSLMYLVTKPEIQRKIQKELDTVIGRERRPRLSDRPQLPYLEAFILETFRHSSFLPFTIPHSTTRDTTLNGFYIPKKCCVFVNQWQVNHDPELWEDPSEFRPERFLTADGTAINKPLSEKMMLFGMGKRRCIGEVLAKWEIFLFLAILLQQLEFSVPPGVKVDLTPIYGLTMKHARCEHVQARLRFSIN
Experiment: CYP450 inhibition in human liver microsomes, CYP1A2
Format: in vitro ADME
Details: pH 7.4, read-out: % CYP inhibition @ 10 µM 1A2
Text: According to standard methods in the field for the study of cytochrome P450 enzyme systems, such as the method described in Kerns, Edward H. and Di Li et al., Drug-like Properties: Concepts, Structure Design and Methods: from ADME to Toxicity Optimization (2008), San Diego, Academic Press, and Lin, Tong et al., In Vitro Assessment of Cytochrome P450 Inhibition: Strategies for Increasing LC/MS-Based Assay Throughput Using a One-Point IC50 Method and Multiplexing High-Performance Liquid Chromatography (J. Pharm. Sci. 2007, 96 (9), 2485). The inhibitory effect of the disclosed compounds on the cytochrome P450 enzyme system was similarly examined below.
Human liver microsomes were purchased from Corning or Xenotech. The test compounds were evaluated by detecting the metabolism of substrates for different Cyp450 isoforms by human liver microsomes.
0.1 M potassium phosphate buffer (K-buffer, pH 7.4) was pre-warmed.
100 mM K-buffer was prepared by mixing 9.5 mL of stock solution A (1 M potassium dihydrogen phosphate, prepared by dissolving 136.5 g of potassium dihydrogen phosphate in 1 L of Milli-Q water) with 40.5 mL of stock solution B (1 M potassium hydrogen phosphate, prepared by dissolving 174.2 g of potassium hydrogen phosphate in 1 L of Milli-Q water). The total volume was adjusted to 500 mL with Milli-Q water, and the buffer was titrated to pH 7.4 using KOH or H3PO4.
Test compound solution and specific inhibitor solution (400× dilution) were prepared in a 96-well plate. For the test compound, 8 µL of 10 mM test compound was transferred into 12 µL of ACN. For specific inhibitors of CYP1A2, CYP2C9, and CYP2D6: 12 µL of 1 mM α-naphthoflavone, 10 µL of 40 mM sulfaphenazole, 10 µL of 10 mM quinidine, and 8 µL of DMSO were mixed. For specific inhibitors of CYP3A4, CYP2B6, CYP2C8, and CYP2C19: 8 µL of DMSO stock solution was added to 12 µL of ACN.
A 4× diluted NADPH solution was prepared by dissolving 66.7 mg of NADPH in 10 mL of 0.1 M K-buffer (pH 7.4). […]

Compound | inhibition at 10 min, 10 µM
O=C(Nc1ccc(-c2cc3cc(F)c(-c4nnn[nH]4)cc3n2C2CCC2)cc1)C(=O)Nc1ccc(N2CCC3(CCOC3)CC2)cc1 [Example 67] | 9.47%
O=C(Nc1ccc(-c2cc3cc(F)c(-c4nnn[nH]4)cc3n2C2CCC2)cc1)C(=O)Nc1ccc(N2CCC(CO)CC2)cc1 [Example 23] | 17.1%
CC1(n2c(-c3ccc(NC(=O)C(=O)Nc4ccc(N5CCC6(CCOC6)CC5)cc4)cc3)cc3cc(F)c(-c4nnn[nH]4)cc32)CCC1 [Example 68] | 11.4%
